Laboratory results reported in patent US20250312469A1 (CANGET BIOTEKPHARMA, priority 2024, published 2025).
Like-named read-outs stand apart in the source and are kept apart here. Marks after values point to notes of the source that are not given here.

[1] = male rats, Group 2, 3 mg/kg/wk, Day 15, vs Group 1
[2] = male rats, Group 3, 3.75/2.5 mg/kg/wk oral, Day 15
[3] = male rats, Group 3, 3.75/2.5 mg/kg/wk, Day 15
[4] = male rats, Group 3, 3.75/2.5 mg/kg/wk, Day 15, vs Group 1
[5] = male rats, Group 4, 4.69/2 mg/kg/wk oral, Day 15, N 2, vs vehicle Group 1
[6] = male rats, Group 4, 4.69/2 mg/kg/wk, Day 15, vs Group 1

Question: With `CCC1(O)C(=O)OCc2c1cc1n(c2=O)Cc2cc3cc4c(cc3nc2-1)OCO4` (stereo not drawn) [FL118] as the compound, how does the “#EOS % Diff” value [1] read?
Answer: −43.40%

Question: And the “#LYMP % Diff” value [1]?
Answer: −13.38%

Question: And the “#MONO % Diff” value [1]?
Answer: −25.17%

Question: What about the “#NEUT % Diff” value [1] of the same compound?
Answer: −34.07%

Question: And the “#RET % Diff” value [1]?
Answer: 53.1%

Question: And the “% BASO % Diff” value [1]?
Answer: −8.3%

Question: And the “% EOS % Diff” value [1]?
Answer: −35.2%

Question: And the “% LYMP % Diff” value [1]?
Answer: 3.7%

Question: What about the “% MONO % Diff” value [1] of the same compound?
Answer: −6.6%

Question: And the “% NEUT % Diff” value [1]?
Answer: −24.1%

Question: And the “% RET % Diff” value [1]?
Answer: 62.09%

Question: What about the “HCT % Diff” value [1] of the same compound?
Answer: −8.0%

Question: What about the “HGB % Diff” value [1] of the same compound?
Answer: −8.9%

Question: And the “MCHC % Diff” value [1]?
Answer: −0.8%

Question: And the “MCV % Diff” value [1]?
Answer: −2.7%

Question: What about the “MPV % Diff” value [1] of the same compound?
Answer: −2.7%

Question: And the “PLT % Diff” value [1]?
Answer: 14%

Question: What about the “RDW % Diff” value [1] of the same compound?
Answer: 15.7%

Question: And the “WBC % Diff” value [1]?
Answer: −16.11%

Question: What about the “ALB, albumin, Mean” value [2] of the same compound?
Answer: 34.1 g/L

Question: What about the “ALP, alkaline phosphatase, Mean” value [2] of the same compound?
Answer: 113 U/L

Question: And the “ALT, alanine aminotransferase, Mean” value [2]?
Answer: 47 U/L

Question: And the “AST, aspartate aminotransferase, Mean” value [2]?
Answer: 104 U/L

Question: And the “BIL-T, total bilirubin, Mean” value [2]?
Answer: 1.83

Question: What about the “CK, creatine kinase, Mean” value [2] of the same compound?
Answer: 296 U/L

Question: And the “CRE, creatinine, Mean” value [2]?
Answer: 19 µmol/L

Question: And the “Ca, calcium, Mean” value [2]?
Answer: 2.41 mmol/L

Question: What about the “GLB, globulin, Mean” value [2] of the same compound?
Answer: 22.0 g/L

Question: And the “K, potassium, Mean” value [2]?
Answer: 5.0 mmol/L

Question: And the “Na, sodium, Mean” value [2]?
Answer: 143 mmol/L

Question: And the “P, inorganic phosphorus, Mean” value [2]?
Answer: 2.38 mmol/L

Question: And the “TCHO, total cholesterol, Mean” value [2]?
Answer: 1.73* mmol/L

Question: What about the “TG, triglyceride, Mean” value [2] of the same compound?
Answer: 0.33 mmol/L

Question: What about the “TP, total protein, Mean” value [2] of the same compound?
Answer: 56.1 g/L

Question: And the “UREA, urea, Mean” value [2]?
Answer: 5.60 mmol/L

Question: And the “sGLU, glucose, Mean” value [2]?
Answer: 10.18 mmol/L

Question: What about the “#BASO Mean” value [3] of the same compound?
Answer: 0.02 10^3/μL

Question: What about the “#EOS Mean” value [3] of the same compound?
Answer: 0.07 10^3/μL

Question: What about the “#LYMP Mean” value [3] of the same compound?
Answer: 8.02 10^3/μL

Question: And the “#MONO Mean” value [3]?
Answer: 0.23 10^3/μL

Question: What about the “#NEUT Mean” value [3] of the same compound?
Answer: 1.04 10^3/μL

Question: What about the “#RET Mean” value [3] of the same compound?
Answer: 342.9 10^9/L

Question: And the “% BASO Mean” value [3]?
Answer: 0.2%

Question: And the “% EOS Mean” value [3]?
Answer: 0.8%

Question: And the “% LYMP Mean” value [3]?
Answer: 84.7%

Question: And the “% MONO Mean” value [3]?
Answer: 2.4%

Question: And the “% NEUT Mean” value [3]?
Answer: 11.2%

Question: And the “% RET Mean” value [3]?
Answer: 4.74%

Question: What about the “HCT Mean” value [3] of the same compound?
Answer: 42.3* %

Question: And the “HGB Mean” value [3]?
Answer: 13.8** g/dL

Question: And the “MCH Mean” value [3]?
Answer: 19.0 pg

Question: And the “MCHC Mean” value [3]?
Answer: 32.6 g/dL

Question: And the “MCV Mean” value [3]?
Answer: 58.2 fL

Question: And the “MPV Mean” value [3]?
Answer: 6.5 fL

Question: What about the “PLT Mean” value [3] of the same compound?
Answer: 1129 10^3/μL

Question: What about the “RDW Mean” value [3] of the same compound?
Answer: 14.1*** %

Question: What about the “WBC Mean” value [3] of the same compound?
Answer: 9.43 10^3/μL

Question: What about the “#EOS % Diff” value [4] of the same compound?
Answer: −30.19%

Question: And the “#LYMP % Diff” value [4]?
Answer: −12.51%

Question: And the “#MONO % Diff” value [4]?
Answer: −18.88%

Question: What about the “#NEUT % Diff” value [4] of the same compound?
Answer: −4.40%

Question: What about the “#RET % Diff” value [4] of the same compound?
Answer: 55.7%

Question: And the “% EOS % Diff” value [4]?
Answer: −22.2%

Question: What about the “% LYMP % Diff” value [4] of the same compound?
Answer: −0.4%

Question: What about the “% MONO % Diff” value [4] of the same compound?
Answer: −10.3%

Question: What about the “% NEUT % Diff” value [4] of the same compound?
Answer: 7.9%

Question: And the “% RET % Diff” value [4]?
Answer: 64.10%

Question: And the “HCT % Diff” value [4]?
Answer: −7.5%

Question: And the “HGB % Diff” value [4]?
Answer: −8.6%

Question: And the “MCHC % Diff” value [4]?
Answer: −1.3%

Question: And the “MCV % Diff” value [4]?
Answer: −2.9%

Question: What about the “PLT % Diff” value [4] of the same compound?
Answer: 10%

Question: And the “RDW % Diff” value [4]?
Answer: 20.5%

Question: And the “WBC % Diff” value [4]?
Answer: −11.98%

Question: And the “ALB, albumin, % Diff” value [5]?
Answer: −28.9%

Question: What about the “ALP, alkaline phosphatase, % Diff” value [5] of the same compound?
Answer: −45%

Question: And the “ALT, alanine aminotransferase, % Diff” value [5]?
Answer: 27.5%

Question: And the “AST, aspartate aminotransferase, % Diff” value [5]?
Answer: 1.54%

Question: What about the “BIL-T, total bilirubin, % Diff” value [5] of the same compound?
Answer: 187.51%

Question: What about the “CK, creatine kinase, % Diff” value [5] of the same compound?
Answer: 13%

Question: And the “CRE, creatinine, % Diff” value [5]?
Answer: −3%

Question: What about the “Ca, calcium, % Diff” value [5] of the same compound?
Answer: −15.35%

Question: What about the “Cl, chloride, % Diff” value [5] of the same compound?
Answer: −3%

Question: And the “K, potassium, % Diff” value [5]?
Answer: 2.6%

Question: And the “Na, sodium, % Diff” value [5]?
Answer: −1%

Question: And the “P, inorganic phosphorus, % Diff” value [5]?
Answer: −13.59%

Question: What about the “TCHO, total cholesterol, % Diff” value [5] of the same compound?
Answer: 9.81%

Question: And the “TG, triglyceride, % Diff” value [5]?
Answer: 52.32%

Question: What about the “TP, total protein, % Diff” value [5] of the same compound?
Answer: −33.1%

Question: And the “UREA, urea, % Diff” value [5]?
Answer: 71.64%

Question: What about the “sGLU, glucose, % Diff” value [5] of the same compound?
Answer: −50.96%

Question: What about the “#BASO % Diff” value [6] of the same compound?
Answer: −58.33%

Question: What about the “#EOS % Diff” value [6] of the same compound?
Answer: −95.28%

Question: And the “#LYMP % Diff” value [6]?
Answer: −57.17%

Question: And the “#MONO % Diff” value [6]?
Answer: −0.35%

Question: What about the “#NEUT % Diff” value [6] of the same compound?
Answer: −19.87%

Question: What about the “#RET % Diff” value [6] of the same compound?
Answer: −87.2%

Question: And the “% BASO % Diff” value [6]?
Answer: −37.5%

Question: And the “% EOS % Diff” value [6]?
Answer: −95.4%

Question: And the “% LYMP % Diff” value [6]?
Answer: −11.9%

Question: What about the “% MONO % Diff” value [6] of the same compound?
Answer: 76.5%

Question: And the “% NEUT % Diff” value [6]?
Answer: 88.7%

Question: What about the “% RET % Diff” value [6] of the same compound?
Answer: −87.53%

Question: And the “HCT % Diff” value [6]?
Answer: 1.7%

Question: What about the “HGB % Diff” value [6] of the same compound?
Answer: 7.1%

Question: What about the “MCHC % Diff” value [6] of the same compound?
Answer: 5.4%

Question: What about the “MCV % Diff” value [6] of the same compound?
Answer: −6.8%

Question: What about the “MPV % Diff” value [6] of the same compound?
Answer: −5.3%

Question: And the “PLT % Diff” value [6]?
Answer: −11%

Question: What about the “RBC % Diff” value [6] of the same compound?
Answer: 8.98%

Question: What about the “RDW % Diff” value [6] of the same compound?
Answer: 4.3%

Question: What about the “WBC % Diff” value [6] of the same compound?
Answer: −52.17%

Question: And the “NOAEL, females” value (oral, once weekly)?
Answer: 3 mg/kg/wk

Question: And the “NOAEL, males” value (oral, once weekly)?
Answer: 2 mg/kg/wk
